Data published in patent US20260256925A1, “INDAZOLE DERIVATIVES AS ESTROGEN RECEPTOR DEGRADERS” (REGENTS OF THE UNIVERSITY OF MICHIGAN, priority 2022, published 2026).

Key:
ER [1] = molecular target: T1, ER (Homo sapiens, UniProt P03372); test: Western blot analysis (compounds B1-B126); type: cell-based; conditions: ER degradation, read-out: Traditional Western Degradation potency (DC50)
T1 construct: endogenous in cells; probably T47D or MCF-7
T1 sequence (P03372 1-595): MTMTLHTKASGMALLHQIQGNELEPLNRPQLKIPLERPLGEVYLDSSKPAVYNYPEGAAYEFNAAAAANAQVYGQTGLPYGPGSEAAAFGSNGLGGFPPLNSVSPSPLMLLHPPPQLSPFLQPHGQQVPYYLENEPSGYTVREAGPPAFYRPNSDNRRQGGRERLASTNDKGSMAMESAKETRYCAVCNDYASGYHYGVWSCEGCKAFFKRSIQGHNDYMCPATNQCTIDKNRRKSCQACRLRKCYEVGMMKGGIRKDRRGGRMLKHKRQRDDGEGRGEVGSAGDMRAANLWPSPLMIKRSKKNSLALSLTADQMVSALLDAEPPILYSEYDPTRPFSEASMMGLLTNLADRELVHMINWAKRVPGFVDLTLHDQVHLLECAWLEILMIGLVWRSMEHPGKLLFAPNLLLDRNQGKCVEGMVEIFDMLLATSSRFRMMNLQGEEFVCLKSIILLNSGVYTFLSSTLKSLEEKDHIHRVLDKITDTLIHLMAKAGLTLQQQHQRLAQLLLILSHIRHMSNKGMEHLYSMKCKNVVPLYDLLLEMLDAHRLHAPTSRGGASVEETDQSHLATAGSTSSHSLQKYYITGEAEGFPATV
Experimental: Western Blot Analysis. The cells that are treated with the compounds are lysed in Radioimmunoprecipitation Assay Protein Lysis and Extraction Buffer (e.g., 25 mmol/L Tris.HCl, pH 7.6, 150 mmol/L NaCl, 1% Nonidet P-40, 1% sodium deoxycholate, and 0.1% sodium dodecyl sulfate) containing proteinase inhibitor cocktail. Equal amounts of total protein are electrophoresed through 10% SDS-polyacrylamide gels after determination of protein concentration by BCA assay. The separated protein bands are transferred onto PVDF membranes and blotted against different antibodies. The blots are scanned, and the band intensities are quantified (e.g., by using GelQuant.NET software provided by biochemlabsolutions.com). The relative mean intensity of target proteins is expressed after normalization to the intensity of glyceraldehyde-3-phosphate dehydrogenase bands.
Western Blot Analysis. Western blot analysis was performed essentially as described previously. The cells treated with indicated compounds were lysed in Radioimmunoprecipitation Assay Protein Lysis and Extraction Buffer (25 mmol/L Tris.HCl, pH 7.6, 150 mmol/L NaCl, 1% Nonidet P-40, 1% sodium deoxycholate, and 0.1% sodium dodecyl sulfate) containing proteinase inhibitor cocktail (Roche Diagnostics, Mannheim, Germany). Equal amounts of total protein were electrophoresed through 10% SDS-polyacrylamide gels after determination of protein concentration by BCA assay (Fisher Scientific, Pittsburgh, PA). The separated protein bands were transferred onto PVDF membranes (GE Healthcare Life Sciences, Marlborough, MA) and blotted against different antibodies, as indicated. The blots were scanned, and the band intensities were quantified using GelQuant.NET software provided by biochemlabsolutions.com. The relative mean intensity of target proteins was expressed after normalization to the intensity of glyceraldehyde-3-phosphate dehydrogenase bands.

ER [2] = molecular target: T1, ER; test: In-cell western blot analysis, relative ER percentage (compounds B1-B126); type: cell-based; conditions: ER degradation, 16 hours, read-out: ICW DC50
How it was run: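 Cells seeded at 40,000 or 10,000 per well overnight were treated with compound (final 0.5% DMSO) for 16 hours, then fixed with formaldehyde. ER was detected with primary antibodies and anti-rabbit-680/anti-mouse-800 secondaries on a CLX reader. Signal is expressed relative to untreated and DMSO wells set as 100%.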

[3] = Cell growth assay, WST-8 (compounds B1-B126); type: cell-based; conditions: 96 h; T47D cell line, WST-8, 4 days; read-out: Cell growth inhibition in T47D cell line IC50
How it was run: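 Cells seeded at 1500/well overnight, treated one day later with compound doses for 4 days, then 10% WST-8 added for 2.5 h at 37° C in CO2. Absorbance at 450 nm, expressed relative to vehicle control over three independent repeats.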

CRBN/DDB1 = molecular target: T2, CRBN/DDB1 (Homo sapiens, UniProt Q96SW2); type: binding; conditions: HTRF, Cy5-labeled Thalidomide probe
T2 construct: purchased Wuxi RP210521GA
Experimental: The binding potency was determined using HTRF assay technology (Perkin Elmer). Compounds were serially diluted in DMSO and 0.2 μL volume was transferred to white 384-well plate.

T2 sequence (Q96SW2 whole entry): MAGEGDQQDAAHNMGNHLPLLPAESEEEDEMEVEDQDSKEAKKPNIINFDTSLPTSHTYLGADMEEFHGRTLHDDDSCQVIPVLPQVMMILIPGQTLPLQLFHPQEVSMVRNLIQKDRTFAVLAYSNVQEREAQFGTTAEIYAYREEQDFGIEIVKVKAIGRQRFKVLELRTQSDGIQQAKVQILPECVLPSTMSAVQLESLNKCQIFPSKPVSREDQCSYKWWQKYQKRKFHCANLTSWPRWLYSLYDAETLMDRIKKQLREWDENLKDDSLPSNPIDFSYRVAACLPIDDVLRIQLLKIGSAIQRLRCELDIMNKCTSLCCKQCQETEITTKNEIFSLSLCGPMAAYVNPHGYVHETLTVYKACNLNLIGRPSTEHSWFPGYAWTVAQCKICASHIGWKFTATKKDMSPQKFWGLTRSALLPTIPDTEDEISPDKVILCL
T2 sequence (Q16531 whole entry partner): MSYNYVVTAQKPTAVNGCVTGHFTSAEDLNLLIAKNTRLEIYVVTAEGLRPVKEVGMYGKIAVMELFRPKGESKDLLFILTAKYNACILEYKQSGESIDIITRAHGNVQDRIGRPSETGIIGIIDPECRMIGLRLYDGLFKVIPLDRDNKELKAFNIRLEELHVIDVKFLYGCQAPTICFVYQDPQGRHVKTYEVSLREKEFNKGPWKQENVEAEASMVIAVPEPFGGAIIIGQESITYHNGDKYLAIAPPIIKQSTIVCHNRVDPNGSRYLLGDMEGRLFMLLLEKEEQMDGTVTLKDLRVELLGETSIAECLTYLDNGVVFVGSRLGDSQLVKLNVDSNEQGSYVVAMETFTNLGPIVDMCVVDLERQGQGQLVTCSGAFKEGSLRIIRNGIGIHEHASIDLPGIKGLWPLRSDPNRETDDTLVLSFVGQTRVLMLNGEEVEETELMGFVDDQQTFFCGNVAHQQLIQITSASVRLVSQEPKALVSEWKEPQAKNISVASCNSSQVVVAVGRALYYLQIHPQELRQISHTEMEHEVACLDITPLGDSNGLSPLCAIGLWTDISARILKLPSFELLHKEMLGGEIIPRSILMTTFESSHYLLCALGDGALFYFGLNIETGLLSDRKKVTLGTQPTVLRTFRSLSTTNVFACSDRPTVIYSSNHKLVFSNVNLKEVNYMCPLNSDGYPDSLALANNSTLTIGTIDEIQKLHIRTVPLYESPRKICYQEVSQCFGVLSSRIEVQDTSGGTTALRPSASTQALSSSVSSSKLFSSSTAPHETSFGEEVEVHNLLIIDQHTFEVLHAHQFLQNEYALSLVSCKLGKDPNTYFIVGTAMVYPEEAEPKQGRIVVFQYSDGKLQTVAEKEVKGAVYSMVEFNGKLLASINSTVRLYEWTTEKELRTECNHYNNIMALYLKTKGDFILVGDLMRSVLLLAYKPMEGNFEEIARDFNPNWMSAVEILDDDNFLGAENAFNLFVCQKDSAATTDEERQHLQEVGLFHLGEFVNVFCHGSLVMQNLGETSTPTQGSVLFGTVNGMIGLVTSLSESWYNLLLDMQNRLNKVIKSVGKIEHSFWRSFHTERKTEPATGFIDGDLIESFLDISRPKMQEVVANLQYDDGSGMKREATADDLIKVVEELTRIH

DC50 (ER [1]) [nM]	DC50 (ER [2]) [nM]	IC50 (CRBN/DDB1) [nM]	Compound	IC50 [3] [nM]
< 10	< 10		C[C@@H]1Cc2c(ccc3[nH]ncc23)[C@@H](c2c(F)cc(N3CCC(CN4CCN(c5ccc6c(c5)CN(C5CCC(=O)NC5=O)C6=O)CC4)CC3)cc2F)N1CC(F)F (stereo partly drawn) [Compound B67, 3-(5-(4-((1-(4-((6S,8R)-7-(2,2-difluoroethyl)-8-methyl-6,7,8,9-tetrahydro-3H-pyrazolo[4,3-f]isoquinolin-6-yl)-3,5-difluorophenyl)piperidin-4-yl)methyl)piperazin-1-yl)-1-oxoisoindolin-2-yl)piperidine-2,6-dione]	< 1
10 to 100			C[C@@H]1Cc2c(ccc3[nH]ncc23)[C@@H](c2c(F)cc(N3CCC(CN4CCN5c6cc7c(cc6OC[C@@H]5C4)C(=O)N(C4CCC(=O)NC4=O)C7)CC3)cc2F)N1CC(F)F (some centres unmarked) [Compound B16]	< 1
< 10			C[C@@H]1Cc2c(ccc3[nH]ncc23)[C@@H](c2c(F)cc(NC3CN(C(=O)[C@H]4CC[C@@H](N5Cc6cc7c(cc6C5)C(=O)N(C5CCC(=O)NC5=O)C7=O)CC4)C3)cc2F)N1CC(F)F (stereo partly drawn) [Compound B25, 6-((1R,4s)-4-(3-((4-((6S,8R)-7-(2,2-difluoroethyl)-8-methyl-6,7,8,9-tetrahydro-3H-pyrazolo[4,3-f]isoquinolin-6-yl)-3,5-difluorophenyl)amino)azetidine-1-carbonyl)cyclohexyl)-2-(2,6-dioxopiperidin-3-yl)-6,7-dihydropyrrolo[3,4-f]isoindole-1,3(2H,5H)-dione]	1 to 10
10 to 100			C[C@@H]1Cc2c(ccc3[nH]ncc23)[C@@H](c2ccc(N3CCC4(CC3)CN(C(=O)CN3Cc5cc6c(cc5C3)C(=O)N(C3CCC(=O)NC3=O)C6=O)CCO4)cn2)N1CC(F)(F)F (some centres unmarked) [Compound B111]	1 to 10
		> 5000	C[C@@H]1Cc2c(ccc3[nH]ncc23)[C@@H](c2c(F)cc(N3CCC4(CCN(C(=O)CN5Cc6cc(F)c(C(=O)N[C@H]7CCC(=O)NC7=O)cc6C5)CC4)CC3)cc2F)N1CC(F)F [Compound A1, 2-(2-(9-(4-((6S,8R)-7-(2,2-difluoroethyl)-8-methyl-6,7,8,9-tetrahydro-3H-pyrazolo[4,3-f]isoquinolin-6-yl)-3,5-difluorophenyl)-3,9-diazaspiro[5.5]undecan-3-yl)-2-oxoethyl)-N-((S)-2,6-dioxopiperidin-3-yl)-6-fluoroisoindoline-5-carboxamide]	
> 100			C[C@@H]1Cc2c(ccc3[nH]ncc23)[C@@H](c2c(F)cc(N3CCC(CN4CCN5c6ccc7c(c6OC[C@@H]5C4)CN(C4CCC(=O)NC4=O)C7=O)CC3)cc2F)N1CC(F)F (stereo partly drawn) [Compound B105, 3-((S)-7-((1-(4-((6S,8R)-7-(2,2-difluoroethyl)-8-methyl-6,7,8,9-tetrahydro-3H-pyrazolo[4,3-f]isoquinolin-6-yl)-3,5-difluorophenyl)piperidin-4-yl)methyl)-1-oxo-1,3,5,5a,6,7,8,9-octahydro-2H-pyrazino[1′,2′:4,5][1,4]oxazino[2,3-e]isoindol-2-yl)piperidine-2,6-dione]	
10 to 100	10 to 100		C[C@@H]1Cc2c(ccc3[nH]ncc23)[C@@H](c2c(F)cc(N3CCC(CN4CCN5c6ccc7c(c6OCC5C4)CN(C4CCC(=O)NC4=O)C7=O)CC3)cc2F)N1CC(F)F (mixture of isomers) [Compound B104, 3-((RS)-7-((1-(4-((6S,8R)-7-(2,2-difluoroethyl)-8-methyl-6,7,8,9-tetrahydro-3H-pyrazolo[4,3-f]isoquinolin-6-yl)-3,5-difluorophenyl)piperidin-4-yl)methyl)-1-oxo-1,3,5,5a,6,7,8,9-octahydro-2H-pyrazino[1′,2′:4,5][1,4]oxazino[2,3-e]isoindol-2-yl)piperidine-2,6-dione]	
10 to 100			C[C@@H]1Cc2c(ccc3[nH]ncc23)[C@@H](c2c(F)cc(NC3CN(C(=O)[C@H]4CC[C@H](N5Cc6cc7c(cc6C5)C(=O)N(C5CCC(=O)NC5=O)C7=O)CC4)C3)cc2F)N1CC(F)F (stereo partly drawn) [Compound B24, 6-((1S,4r)-4-(3-((4-((6S,8R)-7-(2,2-difluoroethyl)-8-methyl-6,7,8,9-tetrahydro-3H-pyrazolo[4,3-f]isoquinolin-6-yl)-3,5-difluorophenyl)amino)azetidine-1-carbonyl)cyclohexyl)-2-(2,6-dioxopiperidin-3-yl)-6,7-dihydropyrrolo[3,4-f]isoindole-1,3(2H,5H)-dione]	1 to 10
> 100			C[C@@H]1Cc2c(ccc3[nH]ncc23)[C@@H](c2c(F)cc(N3CCC(C(=O)N4C5CCC4CC(N4Cc6cc7c(cc6C4)C(=O)N(C4CCC(=O)NC4=O)C7=O)C5)CC3)cc2F)N1CC(F)F (stereo partly drawn) [Compound B103, 6-(8-(1-(4-((6S,8R)-7-(2,2-difluoroethyl)-8-methyl-6,7,8,9-tetrahydro-3H-pyrazolo[4,3-f]isoquinolin-6-yl)-3,5-difluorophenyl)piperidine-4-carbonyl)-8-azabicyclo [3.2.1]octan-3-yl)-2-(2,6-dioxopiperidin-3-yl)-6,7-dihydropyrrolo [3,4-f]isoindole-1,3(2H,5H)-dione]	
10 to 100			C[C@@H]1Cc2c(ccc3[nH]ncc23)[C@@H](c2ccc(C3CCC(C(=O)N4CCC(N5Cc6cc7c(cc6C5)C(=O)N(C5CCC(=O)NC5=O)C7=O)CC4)CC3)cn2)N1CC(F)(F)F (stereo partly drawn) [Compound B10, 2-(2,6-dioxopiperidin-3-yl)-6-(1-(4-(6-((6S,8R)-8-methyl-7-(2,2,2-trifluoroethyl)-6,7,8,9-tetrahydro-3H-pyrazolo[4,3-f]isoquinolin-6-yl)pyridin-3-yl)cyclohexane-1-carbonyl)piperidin-4-yl)-6,7-dihydropyrrolo[3,4-f]isoindole-1,3(2H,5H)-dione]	
> 100			C[C@@H]1Cc2c(ccc3[nH]ncc23)[C@@H](c2c(F)cc(C3CCN(C(=O)[C@H]4CC[C@@H](N5Cc6cc7c(cc6C5)C(=O)N(C5CCC(=O)NC5=O)C7=O)CC4)CC3)cc2F)N1CC(F)F (stereo partly drawn) [Compound B8, 6-((1R,4s)-4-(4-(4-((6S,8R)-7-(2,2-difluoroethyl)-8-methyl-6,7,8,9-tetrahydro-3H-pyrazolo[4,3-f]isoquinolin-6-yl)-3,5-difluorophenyl)piperidine-1-carbonyl)cyclohexyl)-2-(2,6-dioxopiperidin-3-yl)-6,7-dihydropyrrolo[3,4-f]isoindole-1,3(2H,5H)-dione]	

Compound	DC50 (ER [1]) [nM]	DC50 (ER [2]) [nM]	IC50 (CRBN/DDB1) [nM]	IC50 [3] [nM]
6-((1R,4s)-4-(4-(4-((6S,8R)-7-(2,2- difluoroethyl)-8-methyl-6,7,8,9- tetrahydro-3H-pyrazolo[4,3- f]isoquinolin-6-yl)-3,5- difluorophenyl)piperidine-1- carbonyl)cyclohexyl)-2-(2,6- dioxopiperidin-3-yl)-6,7- dihydropyrrolo[3,4-f]isoindole- 1,3(2H,5H)-dione [Compound B9]	< 10	< 10		
